Molecules are shown by their SMILES. pIC50: −log10 of the molar value.

The target in series [1] is Receptor tyrosine-protein kinase erbB-2 (Homo sapiens) (UniProt P04626). The experiment in a line: Inhibition of HER2.
Series [2] deals with NCI-N87. Description: Antiproliferative activity against human NCI-N87 cells. In kind it is functional, cell-based. The settings on record: for IC50: nci-n87; for pIC50: Homo sapiens, NCI-N87, read-out: IC50.
The target in series [3] is Epidermal growth factor receptor (Homo sapiens) (UniProt P00533). The experiment in a line: Inhibition of EGFR.
Series [4] has as its system A2780. Description: Antiproliferative activity against human A2780 cells. It counts as functional, cell-based. To be noted: for IC50: a2780; for pIC50: Homo sapiens, A2780, read-out: IC50.
Series [5] can be described thus: Antitumor activity against human GEO cells xenografted in po dosed athymic mouse assessed as minimum effective dose. It counts as functional. The settings on record: read-out: MED.
Series [6] addresses Tyrosine-protein kinase Lck (Homo sapiens, UniProt P06239). Description: Inhibition of LCK.
Series [7] is described as follows: Drug level in BALB/c mouse at 15 mg/kg, po after 24 hrs. Also noted: dose 15 mg/kg, route oral. In kind it is ADME, organism-based. To be noted: in vivo, read-out: Drug uptake.
Series [8] is described as follows: AUC ( 0 to 24 hrs) in BALB/c mouse at 15 mg/kg, po. In kind it is ADME, organism-based. Also noted: time < 24 hr, dose 15 mg/kg, route oral. To be noted: plasma.
A short description of series [9]: Fraction unbound in BALB/c mouse serum at 10 uM by equilibrium dialysis. In kind it is ADME, cell-free.
Series [10] can be described thus: Drug level in BALB/c mouse at 15 mg/kg, po after 3 hrs. It counts as ADME, organism-based. Also noted: dose 15 mg/kg, route oral. To be noted: in vivo, read-out: Drug uptake.
Series [11] has as its target Vascular endothelial growth factor receptor 2 (Homo sapiens, UniProt P35968). The experiment in a line: Inhibition of KDR.
For series [12], the system named is NCI-N87. The experiment in a line: Antitumor activity against human NCI-N87 cells xenografted in po dosed athymic mouse assessed as minimum effective dose administered Q1D for 14 days. To be noted: 336 h, read-out: MED.
Series [13] is described as follows: AUC ( 0 to 24 hrs) in BALB/c mouse at 240 mg/kg, po. It counts as ADME, organism-based. Set-up: time < 24 hr, dose 240 mg/kg, route oral. The settings on record: plasma.
The nature of series [14]: Cmax in BALB/c mouse at 50 mg/kg, po. It counts as ADME, organism-based. To be noted: in vivo. Also noted: dose 50 mg/kg, route oral.
The nature of series [15]: Drug level in BALB/c mouse at 240 mg/kg, po after 3 hrs. In kind it is ADME, organism-based. Set-up: dose 240 mg/kg, route oral. The settings on record: in vivo, read-out: Drug uptake.
A short description of series [16]: Drug level in BALB/c mouse at 240 mg/kg, po after 24 hrs. In kind it is ADME, organism-based. Also noted: dose 240 mg/kg, route oral. To be noted: in vivo, read-out: Drug uptake.
Series [17] is described as follows: Drug level in BALB/c mouse at 50 mg/kg, po after 4 hrs. It counts as ADME, organism-based. Also noted: dose 50 mg/kg, route oral. The settings on record: in vivo, read-out: Drug uptake.

Epidermal growth factor receptor (Homo sapiens), sequence (P00533 whole entry, looked up): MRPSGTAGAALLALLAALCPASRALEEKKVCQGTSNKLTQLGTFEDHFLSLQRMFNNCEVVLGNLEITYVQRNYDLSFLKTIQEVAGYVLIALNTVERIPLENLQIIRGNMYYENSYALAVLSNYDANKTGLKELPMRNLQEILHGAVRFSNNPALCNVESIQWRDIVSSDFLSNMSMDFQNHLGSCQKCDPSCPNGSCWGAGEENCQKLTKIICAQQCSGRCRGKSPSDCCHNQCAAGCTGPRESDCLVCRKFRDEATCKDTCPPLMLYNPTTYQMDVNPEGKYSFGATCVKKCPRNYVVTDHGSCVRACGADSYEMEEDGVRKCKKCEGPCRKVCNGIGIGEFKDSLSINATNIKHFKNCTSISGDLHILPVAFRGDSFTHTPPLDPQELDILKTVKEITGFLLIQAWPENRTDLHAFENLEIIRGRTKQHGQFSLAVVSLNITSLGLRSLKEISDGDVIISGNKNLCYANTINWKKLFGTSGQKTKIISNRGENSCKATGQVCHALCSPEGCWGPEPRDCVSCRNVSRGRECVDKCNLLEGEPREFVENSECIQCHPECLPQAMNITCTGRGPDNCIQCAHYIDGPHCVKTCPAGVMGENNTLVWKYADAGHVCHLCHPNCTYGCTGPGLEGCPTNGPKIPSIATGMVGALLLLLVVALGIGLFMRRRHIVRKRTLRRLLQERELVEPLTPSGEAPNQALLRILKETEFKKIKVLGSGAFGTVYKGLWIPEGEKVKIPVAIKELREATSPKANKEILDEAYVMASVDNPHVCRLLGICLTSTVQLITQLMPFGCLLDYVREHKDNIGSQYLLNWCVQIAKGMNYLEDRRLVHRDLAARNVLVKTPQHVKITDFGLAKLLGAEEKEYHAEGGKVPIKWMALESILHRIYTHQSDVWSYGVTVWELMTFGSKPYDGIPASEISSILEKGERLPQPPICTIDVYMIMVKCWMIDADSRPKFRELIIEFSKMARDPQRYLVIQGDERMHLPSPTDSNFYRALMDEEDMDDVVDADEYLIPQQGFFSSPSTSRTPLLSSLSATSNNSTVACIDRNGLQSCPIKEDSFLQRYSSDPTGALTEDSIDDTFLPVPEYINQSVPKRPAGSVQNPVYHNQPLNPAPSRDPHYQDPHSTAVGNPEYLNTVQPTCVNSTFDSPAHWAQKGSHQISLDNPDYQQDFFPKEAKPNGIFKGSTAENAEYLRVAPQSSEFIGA
Receptor tyrosine-protein kinase erbB-2 (Homo sapiens), sequence (P04626 whole entry, looked up): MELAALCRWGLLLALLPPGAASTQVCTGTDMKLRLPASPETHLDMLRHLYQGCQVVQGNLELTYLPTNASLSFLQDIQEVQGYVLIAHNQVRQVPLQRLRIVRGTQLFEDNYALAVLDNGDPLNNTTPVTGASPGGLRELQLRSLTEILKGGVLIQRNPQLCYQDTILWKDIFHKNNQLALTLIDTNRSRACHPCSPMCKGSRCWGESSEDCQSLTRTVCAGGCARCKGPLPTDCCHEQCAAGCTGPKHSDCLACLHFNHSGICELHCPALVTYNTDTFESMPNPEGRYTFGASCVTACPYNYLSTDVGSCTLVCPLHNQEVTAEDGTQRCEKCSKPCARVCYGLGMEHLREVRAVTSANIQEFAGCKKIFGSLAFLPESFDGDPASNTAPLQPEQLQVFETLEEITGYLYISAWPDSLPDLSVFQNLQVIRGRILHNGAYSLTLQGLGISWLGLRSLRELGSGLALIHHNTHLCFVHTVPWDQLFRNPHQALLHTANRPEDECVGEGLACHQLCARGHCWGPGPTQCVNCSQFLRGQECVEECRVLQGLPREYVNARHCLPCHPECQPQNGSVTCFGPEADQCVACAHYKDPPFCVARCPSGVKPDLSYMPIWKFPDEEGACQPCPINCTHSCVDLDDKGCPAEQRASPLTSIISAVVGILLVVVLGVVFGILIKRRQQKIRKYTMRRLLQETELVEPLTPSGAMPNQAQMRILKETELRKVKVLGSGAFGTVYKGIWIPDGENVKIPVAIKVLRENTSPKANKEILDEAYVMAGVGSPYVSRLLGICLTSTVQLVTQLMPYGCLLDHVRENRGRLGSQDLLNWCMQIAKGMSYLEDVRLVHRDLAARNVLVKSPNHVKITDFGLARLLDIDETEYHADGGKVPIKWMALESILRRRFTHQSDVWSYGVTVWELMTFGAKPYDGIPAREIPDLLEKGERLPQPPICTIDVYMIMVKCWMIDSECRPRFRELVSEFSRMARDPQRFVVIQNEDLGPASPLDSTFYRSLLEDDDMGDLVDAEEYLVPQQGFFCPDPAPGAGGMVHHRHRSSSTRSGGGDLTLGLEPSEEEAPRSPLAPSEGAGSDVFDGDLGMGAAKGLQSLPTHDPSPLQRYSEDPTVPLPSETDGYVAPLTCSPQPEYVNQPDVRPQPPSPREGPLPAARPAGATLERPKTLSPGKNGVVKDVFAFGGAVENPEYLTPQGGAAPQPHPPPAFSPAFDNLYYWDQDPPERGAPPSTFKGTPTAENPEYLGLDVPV
Vascular endothelial growth factor receptor 2, sequence (P35968 whole entry): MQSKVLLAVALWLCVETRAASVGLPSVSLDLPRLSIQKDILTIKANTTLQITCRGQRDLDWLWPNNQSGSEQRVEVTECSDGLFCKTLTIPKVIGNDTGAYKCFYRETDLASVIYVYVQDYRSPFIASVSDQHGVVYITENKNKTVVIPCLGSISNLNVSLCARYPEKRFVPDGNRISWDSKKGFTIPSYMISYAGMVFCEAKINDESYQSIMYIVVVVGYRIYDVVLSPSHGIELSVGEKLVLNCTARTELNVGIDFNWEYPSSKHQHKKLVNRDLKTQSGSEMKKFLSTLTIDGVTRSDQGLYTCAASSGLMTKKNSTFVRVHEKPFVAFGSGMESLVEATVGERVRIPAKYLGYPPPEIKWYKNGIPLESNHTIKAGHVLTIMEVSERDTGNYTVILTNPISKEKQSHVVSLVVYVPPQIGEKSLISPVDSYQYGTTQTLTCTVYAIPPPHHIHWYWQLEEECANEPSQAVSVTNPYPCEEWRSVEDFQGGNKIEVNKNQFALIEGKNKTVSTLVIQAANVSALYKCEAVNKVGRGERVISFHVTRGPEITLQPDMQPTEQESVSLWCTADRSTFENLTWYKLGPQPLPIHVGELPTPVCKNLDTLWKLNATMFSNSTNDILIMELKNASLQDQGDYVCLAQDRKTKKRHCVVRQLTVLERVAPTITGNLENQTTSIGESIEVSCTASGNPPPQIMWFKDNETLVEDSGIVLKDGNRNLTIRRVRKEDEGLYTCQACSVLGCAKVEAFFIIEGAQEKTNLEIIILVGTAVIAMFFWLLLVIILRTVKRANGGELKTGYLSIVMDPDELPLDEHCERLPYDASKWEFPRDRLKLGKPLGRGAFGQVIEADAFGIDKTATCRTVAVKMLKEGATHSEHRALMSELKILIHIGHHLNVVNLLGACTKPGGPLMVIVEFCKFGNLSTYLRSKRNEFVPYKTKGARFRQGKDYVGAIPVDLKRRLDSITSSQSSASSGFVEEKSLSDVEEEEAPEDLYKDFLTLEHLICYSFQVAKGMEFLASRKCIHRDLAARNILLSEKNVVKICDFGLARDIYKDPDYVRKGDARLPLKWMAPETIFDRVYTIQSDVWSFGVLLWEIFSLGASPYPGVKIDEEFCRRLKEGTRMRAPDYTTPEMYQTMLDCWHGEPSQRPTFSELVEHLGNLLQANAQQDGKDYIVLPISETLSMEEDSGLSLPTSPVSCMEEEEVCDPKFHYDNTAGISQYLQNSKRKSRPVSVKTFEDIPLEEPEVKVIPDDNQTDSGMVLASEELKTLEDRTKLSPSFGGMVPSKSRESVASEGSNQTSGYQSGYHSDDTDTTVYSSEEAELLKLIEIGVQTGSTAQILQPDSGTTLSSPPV
Tyrosine-protein kinase Lck, sequence (P06239 whole entry): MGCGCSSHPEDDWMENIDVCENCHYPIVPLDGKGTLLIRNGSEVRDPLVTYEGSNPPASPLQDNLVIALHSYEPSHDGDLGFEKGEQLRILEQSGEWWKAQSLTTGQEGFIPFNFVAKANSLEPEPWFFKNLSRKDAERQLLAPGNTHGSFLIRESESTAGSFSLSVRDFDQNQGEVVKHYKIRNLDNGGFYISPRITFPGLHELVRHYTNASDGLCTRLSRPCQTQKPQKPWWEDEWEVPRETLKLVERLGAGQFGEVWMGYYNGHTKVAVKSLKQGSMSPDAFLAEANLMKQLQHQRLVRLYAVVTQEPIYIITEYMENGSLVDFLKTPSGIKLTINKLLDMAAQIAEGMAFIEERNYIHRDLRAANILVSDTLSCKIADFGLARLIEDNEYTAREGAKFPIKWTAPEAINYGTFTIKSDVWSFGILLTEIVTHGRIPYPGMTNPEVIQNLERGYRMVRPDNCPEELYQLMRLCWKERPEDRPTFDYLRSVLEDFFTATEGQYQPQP

Turning to `Cn1ncc2cc(Nc3ncnn4ccc(COC[C@@H]5CNCCO5)c34)ccc21`, the pIC50 in series [1] and in [3] was below 6.00 in each case. Moreover, the IC50 result in [2] and in [4] was “Not Active” each time.

Turning to `Cn1ncc2cc(Nc3ncnn4ccc(CN5CCC(N)CC5)c34)ccc21`, the negative logarithm of the IC50 (pIC50) in [1] is 6.02; in series [3], 6.44. Moreover, the IC50 result in series [2] and in series [4] was “Not Active” throughout.

As for `C#Cc1cccc(Nc2ncnn3ccc(COC[C@@H]4CNCCO4)c23)c1`, the pIC50 in series [1] was 6.17; in [2], 5.36; in [3], 7.70; in series [4] it was 5.41.

In the case of `C#Cc1cccc(Nc2ncnn3ccc(CN4CCC(N)CC4)c23)c1`, the pIC50 was 8.00 in [1], 6.92 in series [2], 8.15 in series [3] and 5.64 in series [4]. Further, the minimal effective dose in series [5] amounted to 15 mg/kg.

As for `NC1CCN(Cc2ccn3ncnc(Nc4ccccc4)c23)CC1`, the pIC50 is 6.85 in [2] and 5.43 in [4].

In the case of `CC(C)Nc1ncnn2ccc(CN3CCC(N)CC3)c12`, the pIC50 is below 6.00 in series [1] and 6.06 in series [3].

Consider `Cc1ccccc1Nc1ncnn2ccc(CN3CCC(N)CC3)c12`, for which the pIC50 in [1] is 6.18; in series [2], 5.48; in series [3] it was 7.70; in series [4] it was below 5.30.

Take `Cc1cccc(Nc2ncnn3ccc(CN4CCC(N)CC4)c23)c1`: the negative logarithm of the IC50 (pIC50) in [1] was 7.70; in series [2] it was 6.85; in series [3], 8.30; in [4] it was below 5.30. For the same molecule, the minimal effective dose in series [5] stood at 60 mg/kg.

With `Cc1ccc(Nc2ncnn3ccc(CN4CCC(N)CC4)c23)cc1`, the pIC50 in series [1] is 7.30; in series [2], 6.10; in series [3], 8.22; in series [4], below 5.30.

As for `NC1CCN(Cc2ccn3ncnc(Nc4cccc(F)c4)c23)CC1`, the pIC50 is 7.49 in series [1], 6.55 in series [2], 8.22 in series [3] and below 5.30 in series [4].

In the case of `NC1CCN(Cc2ccn3ncnc(Nc4cccc(Cl)c4)c23)CC1`, the pIC50 in series [1] is 8.05; in series [2], 7.22; in [3], 8.40; in [4], below 5.30. Besides, the minimal effective dose in [5] worked out at 60 mg/kg.

With `NC1CCN(Cc2ccn3ncnc(Nc4cccc(Br)c4)c23)CC1`, the pIC50 in [1] is 8.22; in series [2] it was 7.30; in [3], 8.40; in [4], 5.59.

For the molecule `NC1CCN(Cc2ccn3ncnc(Nc4cc(Cl)cc(Cl)c4)c23)CC1`, the pIC50 is 6.89 in series [1], 5.47 in series [2], 7.47 in series [3] and 5.40 in [4].

With `NC1CCN(Cc2ccn3ncnc(Nc4ccc(F)c(Cl)c4)c23)CC1`, the pIC50 is 8.00 in series [1]; 6.92 in [2]; 8.22 in [3]; 6.43 in [6]; below 5.30 in series [4]; 6.96 in [11]. Moreover, the minimal effective dose in series [5] stood at 15 mg/kg. The concentration at 24 h in [7] came to 6.8 µM. Also, the AUC(0-t) at 24 h in series [8] came to 160 µM·h. The fraction unbound at 10 µM in series [9] is 0.012. Besides, the concentration at 3 h in series [10] came to 7.2 µM.

On to `COc1ccc(Nc2ncnn3ccc(CN4CCC(N)CC4)c23)cc1Cl`, for which the pIC50 in series [1] is 6.68; in [2], 5.92; in series [3], 7.15; in series [4], below 5.30.

In the case of `Fc1cccc(Cn2ncc3cc(Nc4ncnn5ccc(COC[C@@H]6CNCCO6)c45)ccc32)c1`, the minimal effective dose in series [12] was determined as 60 mg/kg. Besides, in series [13], the AUC(0-t) at 24 h stood at 100 µM·h. The molecule further yielded a Cmax in [14] of 9.5 µM. The molecule further returned an unbound share (fraction unbound) at 10 µM in [9] of 0.026. The concentration at 3 h in [15] was 5.8 µM. For the same molecule, in series [16], the concentration at 24 h worked out at 100 nM.

Molecule `NC1CCN(Cc2ccn3ncnc(Nc4ccc5c(cnn5Cc5cccc(F)c5)c4)c23)CC1` showed a pIC50 in series [3] of 7.66. The concentration at 4 h in series [17] amounted to 2700 nM. Further, the minimal effective dose in series [12] was 60 mg/kg. The Cmax in series [14] was 4.5 µM.

For `Cc1c(NC(=O)OC[C@@H]2COCCN2)cn2ncnc(Nc3ccc4c(cnn4Cc4cccc(F)c4)c3)c12` [AC-480], the minimal effective dose in [5] and in [12] was 120 mg/kg in each case.
